From patent US10131652B2, “Pyrimidinyloxy benzene derivatives as herbicides” (E. I. DU PONT DE NEMOURS AND COMPANY, priority 2014, dated 2018)

Experiments:
Assay in all cases: Test D pre-/postemergence plant response
Format in all cases: in vivo
[1] = test system: velvetleaf (Abutilon theophrasti)
In short: (§1)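 Visual injury scoring (0–100) at 13 to 15 days in greenhouse. Preemergence sprays on seeded loam/sand; postemergence sprays on 1–4 leaf plants.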

[2] = test system: Italian ryegrass (Lolium multiflorum)
In short: as §1

[3] = test system: ragweed (common ragweed, Ambrosia elatior)
In short: as §1

[4] = test system: winter wheat (Triticum aestivum)
In short: as §1

soybean (Glycine max) = test system: soybean (Glycine max)
In short: as §1

[5] = test system: oilseed rape (Brassica napus)
In short: as §1

corn (Zea mays) = test system: corn (Zea mays)
In short: as §1

[6] = test system: lambsquarters (Chenopodium album)
In short: as §1

[7] = test system: morningglory (Ipomoea coccinea)
In short: as §1

[8] = Postemergence, 31 g ai/ha, scale 0 to 100 (0 no effect, 100 complete control)
[9] = Postemergence, 62 g ai/ha, scale 0 to 100, 0 no effect, 100 complete control
[10] = Postemergence, 125 g ai/ha, scale 0 to 100, 0 no effect, 100 complete control
[11] = Preemergence, 16 g ai/ha, scale 0 to 100 (0 no effect, 100 complete control)
[12] = Preemergence, 31 g ai/ha, scale 0 to 100 (0 no effect, 100 complete control)
[13] = Preemergence, 62 g ai/ha, scale 0 to 100 (0 no effect, 100 complete control)

N#Cc1cccc(Oc2ncc(Cl)cn2)c1-c1cc(C(F)F)on1 [Compound 180]
Plant response rating (scale 0 to 100), Velvetleaf ([1]; Postemergence, 16 g ai/ha): 45 | Velvetleaf plant response rating [1, 8]: 40 | Velvetleaf plant response rating [1, 9]: 35 | Plant response rating, Velvetleaf [1, 10]: 55 | Plant response rating (scale 0 to 100), Velvetleaf ([1]; Preemergence, 125 g ai/ha): 100 | Plant response rating, Velvetleaf [1, 11]: 75 | Plant response rating, Velvetleaf [1, 12]: 85 | Plant response rating, Velvetleaf [1, 13]: 90 | Plant response rating (scale 0 to 100), Ryegrass, Italian ([2]; Postemergence, 16 g ai/ha): 0 | Ryegrass, Italian plant response rating [2, 8]: 0 | Ryegrass, Italian plant response rating [2, 9]: 5 | Plant response rating, Ryegrass, Italian [2, 10]: 20 | Plant response rating (scale 0 to 100), Ryegrass, Italian ([2]; Preemergence, 125 g ai/ha): 65 | Plant response rating, Ryegrass, Italian [2, 11]: 0 | Plant response rating, Ryegrass, Italian [2, 12]: 0 | Plant response rating, Ryegrass, Italian [2, 13]: 50 | Plant response rating (scale 0 to 100), Ragweed ([3]; Postemergence, 16 g ai/ha): 30 | Ragweed plant response rating [3, 8]: 40 | Ragweed plant response rating [3, 9]: 35 | Plant response rating, Ragweed [3, 10]: 65 | Plant response rating (scale 0 to 100), Ragweed ([3]; Preemergence, 125 g ai/ha): 55 | Plant response rating, Ragweed [3, 11]: 0 | Plant response rating, Ragweed [3, 12]: 5 | Plant response rating, Ragweed [3, 13]: 15 | Plant response rating (scale 0 to 100), Wheat ([4]; Postemergence, 16 g ai/ha): 5 | Wheat plant response rating [4, 8]: 5 | Wheat plant response rating [4, 9]: 15 | Plant response rating, Wheat [4, 10]: 30 | Plant response rating (scale 0 to 100), Wheat ([4]; Preemergence, 125 g ai/ha): 30 | Plant response rating, Wheat [4, 11]: 0 | Plant response rating, Wheat [4, 12]: 0 | Plant response rating, Wheat [4, 13]: 0 | Plant response rating (scale 0 to 100), Soybean (soybean (Glycine max); Postemergence, 16 g ai/ha): 45 | Soybean plant response rating (soybean (Glycine max); [8]): 60 | Soybean plant response rating (soybean (Glycine max); [9]): 70 | Plant response rating, Soybean (soybean (Glycine max); [10]): 85 | Plant response rating (scale 0 to 100), Soybean (soybean (Glycine max); Preemergence, 125 g ai/ha): 80 | Plant response rating, Soybean (soybean (Glycine max); [11]): 5 | Plant response rating, Soybean (soybean (Glycine max); [12]): 25 | Plant response rating, Soybean (soybean (Glycine max); [13]): 60 | Plant response rating (scale 0 to 100), Oilseed Rape ([5]; Postemergence, 16 g ai/ha): 5 | Oilseed Rape plant response rating [5, 8]: 60 | Oilseed Rape plant response rating [5, 9]: 80 | Plant response rating, Oilseed Rape [5, 10]: 90 | Plant response rating (scale 0 to 100), Oilseed Rape ([5]; Preemergence, 125 g ai/ha): 100 | Plant response rating, Oilseed Rape [5, 11]: 70 | Plant response rating, Oilseed Rape [5, 12]: 95 | Plant response rating, Oilseed Rape [5, 13]: 100 | Plant response rating (scale 0 to 100), Corn (corn (Zea mays); Postemergence, 16 g ai/ha): 5 | Corn plant response rating (corn (Zea mays); [8]): 5 | Plant response rating, Corn (corn (Zea mays); [9]): 10 | Plant response rating, Corn (corn (Zea mays); [10]): 15 | Plant response rating (scale 0 to 100), Corn (corn (Zea mays); Preemergence, 125 g ai/ha): 30 | Plant response rating, Corn (corn (Zea mays); [11]): 0 | Plant response rating, Corn (corn (Zea mays); [12]): 0 | Plant response rating, Corn (corn (Zea mays); [13]): 5 | Plant response rating (scale 0 to 100), Lambsquarters ([6]; Postemergence, 16 g ai/ha): 70 | Lambsquarters plant response rating [6, 8]: 80 | Lambsquarters plant response rating [6, 9]: 98 | Plant response rating, Lambsquarters [6, 10]: 98 | Plant response rating (scale 0 to 100), Lambsquarters ([6]; Preemergence, 125 g ai/ha): 90 | Plant response rating, Lambsquarters [6, 11]: 95 | Plant response rating, Lambsquarters [6, 12]: 100 | Plant response rating, Lambsquarters [6, 13]: 100 | Plant response rating (scale 0 to 100), Morningglory ([7]; Postemergence, 16 g ai/ha): 40 | Morningglory plant response rating [7, 8]: 55 | Morningglory plant response rating [7, 9]: 90 | Plant response rating, Morningglory [7, 10]: 90 | Plant response rating (scale 0 to 100), Morningglory ([7]; Preemergence, 125 g ai/ha): 100 | Plant response rating, Morningglory [7, 11]: 0 | Plant response rating, Morningglory [7, 12]: 0 | Plant response rating, Morningglory [7, 13]: 5
